Experiments:
MKK7 = experiment: KINOMEscan; format: binding; settings: 1000 nM
FGFR3(G697C) = experiment: KINOMEscan; format: binding; settings: 1000 nM
FLT4 = experiment: KINOMEscan; format: binding; settings: 1000 nM
PFTK1 = experiment: KINOMEscan; format: binding; settings: 1000 nM
EPHA6 = experiment: KINOMEscan; format: binding; settings: 1000 nM
YSK1 = experiment: KINOMEscan; format: binding; settings: 1000 nM
SLK = experiment: KINOMEscan; format: binding; settings: 1000 nM
ULK1 = experiment: KINOMEscan; format: binding; settings: 1000 nM
NDR1 = experiment: KINOMEscan; format: binding; settings: 1000 nM
[1] = test system: RSK2(Kin.Dom.2-C-terminal); experiment: KINOMEscan; format: binding; settings: 1000 nM
TNNI3K = experiment: KINOMEscan; format: binding; settings: 1000 nM
NIM1 = experiment: KINOMEscan; format: binding; settings: 1000 nM
BTK = target: T1, BTK (Homo sapiens, UniProt Q06187); experiment: KINOMEscan; format: binding; settings: 1000 nM
T1 construct: purchased Invitrogen (Carlsbad, CA, USA)
T1 sequence (Q06187 whole entry): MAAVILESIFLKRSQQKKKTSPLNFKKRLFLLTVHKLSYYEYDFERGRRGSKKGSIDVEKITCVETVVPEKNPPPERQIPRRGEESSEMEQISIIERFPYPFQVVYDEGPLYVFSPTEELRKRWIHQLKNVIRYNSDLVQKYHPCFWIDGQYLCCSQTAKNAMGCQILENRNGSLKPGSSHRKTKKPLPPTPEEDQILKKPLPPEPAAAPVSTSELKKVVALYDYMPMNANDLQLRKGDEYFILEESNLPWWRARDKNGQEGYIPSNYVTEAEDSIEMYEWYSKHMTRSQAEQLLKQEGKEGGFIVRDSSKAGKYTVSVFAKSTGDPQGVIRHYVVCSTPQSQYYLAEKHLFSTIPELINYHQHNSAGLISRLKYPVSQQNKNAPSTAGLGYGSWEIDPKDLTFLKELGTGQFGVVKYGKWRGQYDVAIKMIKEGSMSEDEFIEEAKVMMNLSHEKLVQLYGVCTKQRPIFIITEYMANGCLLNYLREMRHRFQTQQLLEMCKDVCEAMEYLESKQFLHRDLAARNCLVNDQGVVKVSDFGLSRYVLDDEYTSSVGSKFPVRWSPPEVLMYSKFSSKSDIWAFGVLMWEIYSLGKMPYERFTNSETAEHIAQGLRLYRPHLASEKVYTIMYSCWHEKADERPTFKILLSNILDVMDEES

MEK2 = experiment: KINOMEscan; format: binding; settings: 1000 nM
NEK10 = experiment: KINOMEscan; format: binding; settings: 1000 nM
PRKG2 = experiment: KINOMEscan; format: binding; settings: 1000 nM
PIKFYVE = experiment: KINOMEscan; format: binding; settings: 1000 nM
PCTK2 = experiment: KINOMEscan; format: binding; settings: 1000 nM
BMX = target: T2, BMX (Homo sapiens, UniProt P51813); experiment: KINOMEscan; format: binding; settings: 1000 nM
T2 construct: purchased Invitrogen (Carlsbad, CA, USA)
T2 sequence (P51813 1-675): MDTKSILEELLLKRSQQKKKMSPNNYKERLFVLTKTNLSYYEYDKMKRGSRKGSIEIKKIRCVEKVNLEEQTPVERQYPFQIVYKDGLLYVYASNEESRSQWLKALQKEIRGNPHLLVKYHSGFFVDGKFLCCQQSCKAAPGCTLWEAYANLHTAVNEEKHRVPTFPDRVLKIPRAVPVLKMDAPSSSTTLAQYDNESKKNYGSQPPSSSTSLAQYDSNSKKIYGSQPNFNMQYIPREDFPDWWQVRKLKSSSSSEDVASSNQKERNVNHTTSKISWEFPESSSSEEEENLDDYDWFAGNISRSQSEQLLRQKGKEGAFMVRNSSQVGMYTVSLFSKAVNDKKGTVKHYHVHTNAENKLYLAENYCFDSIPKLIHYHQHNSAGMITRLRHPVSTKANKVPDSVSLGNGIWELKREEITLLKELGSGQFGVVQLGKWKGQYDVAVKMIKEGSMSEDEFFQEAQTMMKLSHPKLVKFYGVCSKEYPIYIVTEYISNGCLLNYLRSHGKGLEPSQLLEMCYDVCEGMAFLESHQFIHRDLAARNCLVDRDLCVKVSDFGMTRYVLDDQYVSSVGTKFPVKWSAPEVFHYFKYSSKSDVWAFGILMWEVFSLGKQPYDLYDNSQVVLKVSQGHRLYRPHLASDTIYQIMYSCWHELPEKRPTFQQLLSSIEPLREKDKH

NEK6 = experiment: KINOMEscan; format: binding; settings: 1000 nM
[2] = test system: ABL1(F317I)-phosphorylated; experiment: KINOMEscan; format: binding; settings: 1000 nM
[3] = test system: JAK3(JH1domain-catalytic); experiment: KINOMEscan; format: binding; settings: 1000 nM
FLT3(ITD) = experiment: KINOMEscan; format: binding; settings: 1000 nM
YANK3 = experiment: KINOMEscan; format: binding; settings: 1000 nM
EPHA7 = experiment: KINOMEscan; format: binding; settings: 1000 nM
CDKL5 = experiment: KINOMEscan; format: binding; settings: 1000 nM
MERTK = experiment: KINOMEscan; format: binding; settings: 1000 nM
BLK = target: T3, BLK (Homo sapiens, UniProt P51451); experiment: ADP-Glo biochemical kinase assay
T3 construct: purchased Invitrogen (Carlsbad, CA, USA)
T3 sequence (P51451 whole entry): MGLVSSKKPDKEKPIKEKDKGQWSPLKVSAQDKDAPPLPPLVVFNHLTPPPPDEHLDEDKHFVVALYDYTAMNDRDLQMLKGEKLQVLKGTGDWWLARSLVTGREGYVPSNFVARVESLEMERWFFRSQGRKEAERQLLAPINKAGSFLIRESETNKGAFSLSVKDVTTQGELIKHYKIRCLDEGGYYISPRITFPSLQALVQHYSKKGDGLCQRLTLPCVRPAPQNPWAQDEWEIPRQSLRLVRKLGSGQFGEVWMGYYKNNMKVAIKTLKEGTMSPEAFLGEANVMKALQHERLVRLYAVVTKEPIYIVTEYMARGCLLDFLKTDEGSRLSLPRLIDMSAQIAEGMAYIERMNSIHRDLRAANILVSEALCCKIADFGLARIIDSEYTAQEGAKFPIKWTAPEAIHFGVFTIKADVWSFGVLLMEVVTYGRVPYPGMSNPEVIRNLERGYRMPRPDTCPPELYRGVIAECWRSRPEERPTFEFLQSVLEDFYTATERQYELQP
Excerpt: (§1) The biochemical tests of BMX, BLK, JAK3, TXK, HER2, HER4, ITK, EGFR, and BTK were provided by Invitrogen (Carlsbad, CA, USA).

ITK = target: T4, ITK (Homo sapiens, UniProt Q08881); experiment: ADP-Glo biochemical kinase assay
T4 construct: purchased Invitrogen (Carlsbad, CA, USA)
T4 sequence (Q08881 1-620): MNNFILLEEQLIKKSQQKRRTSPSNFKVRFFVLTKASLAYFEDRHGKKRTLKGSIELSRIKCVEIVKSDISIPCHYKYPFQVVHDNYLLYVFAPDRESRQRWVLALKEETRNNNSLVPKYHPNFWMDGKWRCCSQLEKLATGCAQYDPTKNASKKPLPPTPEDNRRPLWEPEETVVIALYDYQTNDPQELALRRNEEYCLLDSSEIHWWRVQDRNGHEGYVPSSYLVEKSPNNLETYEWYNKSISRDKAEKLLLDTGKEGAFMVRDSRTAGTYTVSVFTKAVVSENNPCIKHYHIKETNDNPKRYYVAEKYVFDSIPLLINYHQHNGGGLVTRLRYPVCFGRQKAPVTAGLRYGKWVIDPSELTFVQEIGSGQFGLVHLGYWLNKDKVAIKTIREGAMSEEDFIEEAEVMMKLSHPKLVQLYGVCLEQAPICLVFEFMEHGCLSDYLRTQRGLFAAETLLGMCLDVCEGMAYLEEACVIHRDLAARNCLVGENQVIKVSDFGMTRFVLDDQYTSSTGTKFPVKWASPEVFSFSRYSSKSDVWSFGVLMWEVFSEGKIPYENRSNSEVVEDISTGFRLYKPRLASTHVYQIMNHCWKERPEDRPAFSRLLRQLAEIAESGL
Excerpt: as §1

[4] = test system: ABL1(F317I)-nonphosphorylated; experiment: KINOMEscan; format: binding; settings: 1000 nM
AAK1 = experiment: KINOMEscan; format: binding; settings: 1000 nM
FAK = experiment: KINOMEscan; format: binding; settings: 1000 nM
WEE1 = experiment: KINOMEscan; format: binding; settings: 1000 nM

C=CC(=O)Nc1cc(Nc2cc(-c3cccc(NC(=O)c4cc5c(s4)CCCC5)c3C)cn(C)c2=O)ccc1N1CCN(CC)CC1 [CHMFL-BTK-85] was tested, and the “Percent Control” value (MKK7) was 99%, the “Percent Control” value (FGFR3(G697C)) was 87% and the “Percent Control” value (FLT4) was 97%. For the same compound, the “Percent Control” value (PFTK1) was 80%, the “Percent Control” value (EPHA6) was 100% and the “Percent Control” value (YSK1) was 80%. The “Percent Control” value (SLK) was 95%, the “Percent Control” value (ULK1) was 100% and the “Percent Control” value (NDR1) was 100%. The “Percent Control” value [1] was 99%, the “Percent Control” value (TNNI3K) was 93% and the “Percent Control” value (NIM1) was 100%. For the same compound, the percent of control binding at 1 µM (BTK) was 0.9%, the “Percent Control” value (MEK2) was 100% and the “Percent Control” value (NEK10) was 100%. The “Percent Control” value (PRKG2) was 95%, the “Percent Control” value (PIKFYVE) was 78% and the “Percent Control” value (PCTK2) was 100%. The percent of control binding at 1 µM (BMX) was 59%, the “Percent Control” value (NEK6) was 100% and the “Percent Control” value [2] was 100%. The “Percent Control” value [3] was 80%, the “Percent Control” value (FLT3(ITD)) was 99% and the “Percent Control” value (YANK3) was 89%. For the same compound, the “Percent Control” value (EPHA7) was 100%, the “Percent Control” value (CDKL5) was 100% and the “Percent Control” value (MERTK) was 84%. The IC50 (BLK; read-out: IC50 against BLK) was greater than 10 µM, the “selectivity over BLK” value (BLK; vs BTK) was “more than 1000 fold” and the IC50 (ITK; read-out: IC50 against ITK) was greater than 10 µM. The “selectivity over ITK” value (ITK; vs BTK) was “more than 1000 fold”, the “Percent Control” value [4] was 99% and the “Percent Control” value (AAK1) was 82%. For the same compound, the “Percent Control” value (FAK) was 99% and the “Percent Control” value (WEE1) was 100%.
